# Results from patent US20040097439A9, “Isolated polynucleotides having a reduced or an increased content of epigenetic control motifs and uses thereof” (priority 1999, published 2004).
# Test system: histone deacetylases
# Experiment: Relief of repressed LacZ transgenes in cleavage stage embryos by inhibitors of histone deacetylases
# Type: cell-based, mouse
# Conditions: for proportion of β-gal+ embryos after NaB treatment: repressed paternal transgene; for release from repression of LacZ transgenes in treated embryos: DCR6 and DCR7 2-cell embryos, NaB 2.5 mM or TSA 66 nM for 24 h
# Method: One-cell embryos from different lines, carrying a transgene of maternal (A) or paternal (B) origin were recovered at 24 hphCG and allowed to develop in the absence (control) or presence of sodium butyrate (NaB; 2.5 mM) or trichostatin A (TSA; 66 nM) for 24 h. Aphidicolin, an inhibitor of DNA polymerases was used alone (Aph; 2 μg/ml) or in combination with sodium butyrate (Aph+NaB).
# It is becoming more and more evident that at least part of the transcriptional repression dependent on methylated CpG islands is mediated by histone deacetylation. […] To test whether this mechanism could be responsible for the non-permissive transcriptional state established during gametogenesis and inherited by the embryo, cleavage stage embryos were treated with the deacetylase inhibitors, sodium butyrate (NaB) and the trichostatin A (TSA), two inhibitors of histone deacetylases (Yoshida et al., 1995).
Structure (SMILES),"proportion of β-gal+ embryos after NaB treatment (DCR1 line, 3% β-gal+ in untreated embryos)","proportion of β-gal+ embryos after NaB treatment (DCR3 line, 18% β-gal+ in untreated embryos)","proportion of β-gal+ embryos after NaB treatment (DCR5 line, 0% β-gal+ in untreated embryos)",release from repression of LacZ transgenes in treated embryos
"CCCC(=O)[O-].[Na+] [NaB, sodium butyrate]",70%,100%,10%,release from repression
"CC(/C=C/C(=O)NO)=C\[C@@H](C)C(=O)c1ccc(N(C)C)cc1 [TSA, trichostatin A]",,,,release from repression
